SMILES strings stand for the structures. Numbered stars: 1 amine (or outer) side, 2 acyl side, 3 side chain; on linkers, the order of the positions; unused ones are H or OH. Bridge positions count the residues as written; N and C are the ends. Square brackets hold non-standard residues; d marks the D form. Peptide text beside a SMILES is read from it. * marks the point of attachment. ξ: configuration not given here. Bip = N[C@@H](Cc1ccc(-c2ccccc2)cc1)C(=O)O; Phe(3-Me) = Cc1cccc(C[C@H](N)C(=O)O)c1; γGlu = O=C(O)[C@H](CCC(=O)[*:2])N[*:1]; ξBip = NC(Cc1ccc(-c2ccccc2)cc1)C(=O)O; hArg = N=C(N)NCCCC[C@H](N)C(=O)O; hCit = NC(=O)NCCCC[C@H](N)C(=O)O; Cha = N[C@@H](CC1CCCCC1)C(=O)O; Cit = NC(=O)NCCC[C@H](N)C(=O)O; dCha = N[C@H](CC1CCCCC1)C(=O)O; Thr(3ξ) = CC(O)[C@H](N)C(=O)O; 12Ado = NCCCCCCCCCCCC(=O)O; Carboxymethyl = O=C(O)C*; Orn = NCCC[C@H](N)C(=O)O; Aun = NCCCCCCCCCCC(=O)O; Dab = NCC[C@H](N)C(=O)O; Dap = NC[C@H](N)C(=O)O; ξD = NC(CC(=O)O)C(=O)O; AEEA = NCCOCCOCC(=O)O; Ac3c = NC1(C(=O)O)CC1; Piv = CC(C)(C)C(=O)*; ξC = NC(CS)C(=O)O

T1 sequence (Q15116 25-288): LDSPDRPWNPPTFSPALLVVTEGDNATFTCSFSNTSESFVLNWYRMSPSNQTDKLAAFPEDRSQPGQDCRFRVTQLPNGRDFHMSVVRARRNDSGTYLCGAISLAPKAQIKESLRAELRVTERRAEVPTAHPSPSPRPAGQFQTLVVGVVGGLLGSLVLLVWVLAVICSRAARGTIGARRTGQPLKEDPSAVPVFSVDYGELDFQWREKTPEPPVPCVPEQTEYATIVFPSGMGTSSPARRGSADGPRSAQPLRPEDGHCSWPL

The test addresses T1, PD-1/PD-L1 interaction (PE-labeled human PD-L1-Ig binding to Jurkat cell line over-expressing human PD-1) (Homo sapiens, UniProt Q15116).
T1 construct: expressed in transfected cells; host or cells: Jurkat
Description: Jurkat-PD-1 Cell Binding High-Content Screening Assay (CBA). The format is cell-based. The note with it: Jurkat cell line over-expressing human PD-1; PE-labeled PD-L1-Ig 20 nM final; read-out: Jurkat hPD1-PDL1 IC50. An outline of the steps:
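Jurkat-hPD-1 cells, DMEM/10% FCS; cpd 2 h 37° C; PE-PD-L1-Ig 20 nM final, 1 h; 4% PFA fix + Hoechst 33342, 3× dPBS wash; high-content imaging read-out.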
A word on the IC50: it is the midpoint of a concentration-inhibition curve. Take `Cc1cccc(C[C@@H]2NC(=O)[C@H](CC(=O)O)NC(=O)[C@H](Cc3ccc(OCC(=O)O)cc3)NC(=O)[C@H](CN)NC(=O)CSC[C@@H](C(=O)N[C@@H](CCN)C(=O)NCCOCCOCC(=O)NCCCCCCCCCCC(=O)O)NC(=O)[C@H](CN)NC(=O)[C@H](C(C)C)NC(=O)[C@H](CC3CCCCC3)NC(=O)[C@H](CCN)NC(=O)[C@@H](CC3CCCCC3)NC(=O)[C@H](CCCN)NC(=O)[C@H](C(C)C)NC(=O)[C@H](Cc3ccc(-c4ccccc4)cc3)NC(=O)[C@H](C(C)C)NC2=O)c1` [Compound 2684] ({CH2CO}-[Dap]Y(Carboxymethyl)D[Phe(3-Me)]V[Bip]V[Orn][dCha][Dab][Cha]V[Dap]C[Dab][AEEA][Aun]-OH; thioether N-14): the IC50 is 0.0363 µM. In the case of `Cc1cccc(C[C@@H]2NC(=O)[C@H](CC(=O)O)NC(=O)[C@H](Cc3ccc(OCC(=O)O)cc3)NC(=O)[C@H](CN)NC(=O)CSC[C@@H](C(=O)N[C@@H](CCN)C(=O)NCCCCCCCCCCCCC(=O)O)NC(=O)[C@H](C(C)O)NC(=O)[C@H](C(C)C)NC(=O)[C@H](CC3CCCCC3)NC(=O)[C@H](CCN)NC(=O)[C@@H](CC(C)C)NC(=O)[C@H](CCCN)NC(=O)[C@H](CCCNC(N)=O)NC(=O)[C@H](Cc3ccc(-c4ccccc4)cc3)NC(=O)[C@H](C(C)C)NC2=O)c1` (mixture of isomers) [Compound 3126], the IC50 is 0.0686 µM. The same measure for `CC(C)C[C@H]1NC(=O)[C@H](CCCN)NC(=O)[C@H](C(C)C)NC(=O)[C@H](Cc2ccc(-c3ccccc3)cc2)NC(=O)[C@H](C(C)C)NC(=O)[C@H](Cc2c[nH]c3ccccc23)NC(=O)[C@H](CC(=O)O)NC(=O)[C@H](Cc2ccc(OCC(=O)O)cc2)NC(=O)[C@H](CN)NC(=O)CSCC(C(=O)N[C@H](CCCCN)C(=O)NCCCCCCCCCCC(=O)O)NC(=O)[C@H]([C@@H](C)O)NC(=O)[C@H](C(C)C)NC(=O)[C@H](CC2CCCCC2)NC(=O)[C@H](Cc2cnc[nH]2)NC1=O` (stereo partly drawn) [Compound 1120] ({CH2CO}-[Dap]Y(Carboxymethyl)DWV[Bip]V[Orn][dL]H[Cha]VT[ξC][dK][Aun]-OH; thioether N-14): 0.0409 µM; for `CC(C)C[C@H]1NC(=O)[C@H](CCCN)NC(=O)[C@H](C(C)C)NC(=O)[C@H](Cc2ccc(-c3ccccc3)cc2)NC(=O)[C@H](C(C)C)NC(=O)[C@H](Cc2c[nH]c3ccccc23)NC(=O)[C@H](CC(=O)O)NC(=O)[C@H](Cc2ccc(OCC(=O)O)cc2)NC(=O)[C@H](CN)NC(=O)CSC[C@@H](C(=O)N[C@@H](CCN)C(=O)NCCOCCOCC(=O)N[C@@H](CCC(=O)NCCCCCCCCCCC(=O)O)C(=O)O)NC(=O)[C@H](CCCCN)NC(=O)[C@H](C(C)O)NC(=O)[C@H](CC2CCCCC2)NC(=O)[C@H](CCN)NC1=O` (stereo partly drawn) [Compound 3650] ({CH2CO}-[Dap]Y(Carboxymethyl)DWV[Bip]V[Orn][dL][Dab][Cha][Thr(3ξ)]KC[Dab][AEEA][γGlu][Aun]-OH; thioether N-14): 0.0175 µM. Next, `Cc1cccc(C[C@@H]2NC(=O)C(CC(=O)O)NC(=O)[C@H](Cc3ccc(OCC(=O)O)cc3)NC(=O)[C@H](CN)NC(=O)CSC[C@@H](C(=O)NCCOCCOCC(=O)N[C@@H](CCCNC(=N)N)C(=O)NCCCCCCCCCCC(=O)O)NC(=O)[C@H]([C@@H](C)O)NC(=O)[C@H](C(C)C)NC(=O)[C@H](CC3CCCCC3)NC(=O)[C@H](CCN)NC(=O)[C@@H](CC(C)C)NC(=O)[C@H](CCCN)NC(=O)[C@H](CCCNC(N)=O)NC(=O)C(Cc3ccc(-c4ccccc4)cc3)NC(=O)[C@H](C(C)C)NC2=O)c1` (stereo partly drawn) [Compound 1180] ({CH2CO}-[Dap]Y(Carboxymethyl)[ξD][Phe(3-Me)]V[ξBip][Cit][Orn][dL][Dab][Cha]VTC[AEEA]R[Aun]-OH; thioether N-14): 0.0184 µM; `CC(C)C[C@H]1NC(=O)[C@H](CCCN)NC(=O)[C@H](Cc2ccc(O)cc2)NC(=O)[C@H](Cc2ccc(-c3ccccc3)cc2)NC(=O)[C@H](C(C)C)NC(=O)[C@H](Cc2c[nH]c3ccccc23)NC(=O)[C@H](CC(=O)O)NC(=O)[C@H](Cc2ccc(OCC(=O)O)cc2)NC(=O)[C@H](C(C)O)NC(=O)CSC[C@@H](C(=O)N[C@@H](CCN)C(=O)NCCCCCCCCCCC(=O)O)NC(=O)[C@H](CCCCN)NC(=O)[C@H](C(C)O)NC(=O)[C@H](CC2CCCCC2)NC(=O)[C@H](CCN)NC1=O` (stereo partly drawn) [Compound 3668] ({CH2CO}-[Thr(3ξ)]Y(Carboxymethyl)DWV[Bip]Y[Orn][dL][Dab][Cha][Thr(3ξ)]KC[Dab][Aun]-OH; thioether N-14): 0.0783 µM; `CC(C)C[C@H]1NC(=O)[C@H](CCCN)NC(=O)[C@H](Cc2ccc(O)cc2)NC(=O)[C@H](Cc2ccc(-c3ccccc3)cc2)NC(=O)[C@H](CCCCNC(=O)C(C)(C)C)NC(=O)[C@H](Cc2c[nH]c3ccccc23)NC(=O)[C@H](CC(=O)O)NC(=O)[C@H](Cc2ccc(OCC(=O)O)cc2)NC(=O)[C@H](C(C)O)NC(=O)CSC[C@@H](C(=O)NCCOCCOCC(=O)NCCCCCCCCCCC(=O)O)NC(=O)[C@H](CO)NC(=O)[C@H](Cc2cnc[nH]2)NC(=O)[C@H](CC2CCCCC2)NC(=O)[C@H](CCN)NC1=O` (stereo partly drawn) [Compound 3699] ({CH2CO}-[Thr(3ξ)]Y(Carboxymethyl)DWK(Piv)[Bip]Y[Orn][dL][Dab][Cha]HSC[AEEA][Aun]-OH; thioether N-14): 0.0969 µM.

Turning to `Cc1cccc(C[C@@H]2NC(=O)[C@H](CC(=O)O)NC(=O)[C@H](Cc3ccc(OCC(=O)O)cc3)NC(=O)[C@H](CN)NC(=O)CSC[C@@H](C(=O)NC3(C(=O)NCCCCCCCCCCC(=O)O)CC3)NC(=O)[C@H]([C@@H](C)O)NC(=O)[C@H](C(C)C)NC(=O)[C@H](CC3CCCCC3)NC(=O)[C@H](CCN)NC(=O)[C@@H](CC(C)C)NC(=O)[C@H](CCCN)NC(=O)[C@H](CCCNC(N)=O)NC(=O)[C@H](Cc3ccc(-c4ccccc4)cc3)NC(=O)[C@H](C(C)C)NC2=O)c1` [Compound 2010] ({CH2CO}-[Dap]Y(Carboxymethyl)D[Phe(3-Me)]V[Bip][Cit][Orn][dL][Dab][Cha]VTC[Ac3c][Aun]-OH; thioether N-14), the IC50 stood at 0.0153 µM. The same measure for `Cc1cccc(C[C@@H]2NC(=O)[C@H](CC(=O)O)NC(=O)[C@H](Cc3ccc(OCC(=O)O)cc3)NC(=O)[C@H](CCCNC(=N)N)NC(=O)CSC[C@@H](C(=O)N[C@@H](CCCN)C(=O)NCCCCCCCCCCC(=O)O)NC(=O)[C@H](CCC(N)=O)NC(=O)[C@H](C(C)C)NC(=O)[C@H](CC3CCCCC3)NC(=O)[C@H](CCN)NC(=O)[C@@H](CC(C)C)NC(=O)[C@H](CCN)NC(=O)[C@H](Cc3ccc(OCC(=O)O)cc3)NC(=O)[C@H](Cc3ccc(-c4ccccc4)cc3)NC(=O)[C@H](Cc3ccc(OCC(=O)O)cc3)NC2=O)c1` [Compound 2855] ({CH2CO}-RY(Carboxymethyl)D[Phe(3-Me)]Y(Carboxymethyl)[Bip]Y(Carboxymethyl)[Dab][dL][Dab][Cha]VQC[Orn][Aun]-OH; thioether N-14): 0.0196 µM; for `CC(C)C[C@H]1NC(=O)[C@H](CCCN)NC(=O)[C@H](C(C)C)NC(=O)[C@H](Cc2ccc(-c3ccccc3)cc2)NC(=O)[C@H](C(C)C)NC(=O)[C@H](Cc2c[nH]c3ccccc23)NC(=O)[C@H](CC(=O)O)NC(=O)[C@H](CCCCNC(N)=O)NC(=O)[C@H](Cc2ccc(OCC(=O)O)cc2)NC(=O)CSC[C@@H](C(=O)NCC(=O)NCCOCCOCC(=O)N[C@@H](CCCN)C(=O)NCCCCCCCCCCCC(=O)O)NC(=O)[C@H](CN)NC(=O)[C@H](C(C)C)NC(=O)[C@H](CC2CCCCC2)NC(=O)[C@H](CCN)NC1=O` [Compound 3169] ({CH2CO}-Y(Carboxymethyl)[hCit]DWV[Bip]V[Orn][dL][Dab][Cha]V[Dap]CG[AEEA][Orn][12Ado]-OH; thioether N-14): 0.0208 µM. The same measure for `Cc1cccc(C[C@@H]2NC(=O)[C@H](CC(=O)O)NC(=O)[C@H](Cc3ccc(O)cc3)NC(=O)[C@H](CC(N)=O)NC(=O)CSC[C@@H](C(=O)N[C@@H](CCN)C(=O)NCCOCCOCC(=O)NCCCCCCCCCCC(=O)O)NC(=O)[C@H](CCCN)NC(=O)[C@H](C(C)C)NC(=O)[C@H](CC3CCCCC3)NC(=O)[C@H](CCN)NC(=O)[C@@H](CC(C)C)NC(=O)[C@H](CCCN)NC(=O)[C@H](Cc3ccc(O)cc3)NC(=O)[C@H](Cc3ccc(-c4ccccc4)cc3)NC(=O)[C@H](C(C)C)NC2=O)c1` [Compound 2695] ({CH2CO}-NYD[Phe(3-Me)]V[Bip]Y[Orn][dL][Dab][Cha]V[Orn]C[Dab][AEEA][Aun]-OH; thioether N-14): 0.0051 µM; for `Cc1cccc(C[C@@H]2NC(=O)[C@H](CC(=O)O)NC(=O)[C@H](Cc3ccc(OCC(=O)O)cc3)NC(=O)[C@H](CCN)NC(=O)CSC[C@@H](C(=O)N[C@@H](CCN)C(=O)NCCCCCCCCCCC(=O)O)NC(=O)[C@H](CO)NC(=O)[C@H](C(C)O)NC(=O)[C@H](CC3CCCCC3)NC(=O)[C@H](CCN)NC(=O)[C@@H](CC(C)C)NC(=O)[C@H](CCCN)NC(=O)[C@H](Cc3ccc(OCC(=O)O)cc3)NC(=O)[C@H](Cc3ccc(-c4ccccc4)cc3)NC(=O)[C@H](Cc3ccc(OCC(=O)O)cc3)NC2=O)c1` (stereo partly drawn) [Compound 3630] ({CH2CO}-[Dab]Y(Carboxymethyl)D[Phe(3-Me)]Y(Carboxymethyl)[Bip]Y(Carboxymethyl)[Orn][dL][Dab][Cha][Thr(3ξ)]SC[Dab][Aun]-OH; thioether N-14): 0.0067 µM. For `CC(C)C[C@H]1NC(=O)[C@H](CCCN)NC(=O)[C@H](C(C)C)NC(=O)[C@H](Cc2ccc(-c3ccccc3)cc2)NC(=O)[C@H](C(C)C)NC(=O)[C@H](Cc2c[nH]c3ccccc23)NC(=O)[C@H](CC(=O)O)NC(=O)[C@H](Cc2ccc(OCC(=O)O)cc2)NC(=O)[C@H](CCCCNC(=N)N)NC(=O)CSC[C@@H](C(=O)N[C@@H](C)C(=O)NCCOCCOCC(=O)N[C@@H](CCN)C(=O)NCCCCCCCCCCC(=O)O)NC(=O)[C@H](C(C)O)NC(=O)[C@H](C(C)C)NC(=O)[C@H](CC2CCCCC2)NC(=O)[C@H](CCN)NC1=O` (stereo partly drawn) [Compound 3028] ({CH2CO}-[hArg]Y(Carboxymethyl)DWV[Bip]V[Orn][dL][Dab][Cha]V[Thr(3ξ)]CA[AEEA][Dab][Aun]-OH; thioether N-14), the half-maximal inhibitory concentration (IC50) was determined as 0.0164 µM.
